Read-outs that look alike come from different tables or passages of the source.
Legend:
SYK kinase = biological target: T1, SYK kinase (Homo sapiens, UniProt P43405); assay: In vitro test of the inhibition effect on SYK kinase (HTRF); format: biochemical; details: tyrosine kinase 0.0156 ng/μL, substrate 0.2 uM, ATP 2 uM, 23° C. 1 hour, read-out: Inhibit SYK kinase IC50
T1 construct: purchased Invitrogen PV3857
Description: Experimental Example 1: In Vitro Test of the Inhibition Effect of the Example Compounds on SYK Kinase
Adenosine triphosphate concentration was controlled at 2 uM. • 4) Loaded with a Multidrop automatic dispenser, and a mixture of tyrosinase solution and tyrosine kinase-substrate-biotin/adenosine triphosphate was added in an amount of 5 ul per well, and incubated at 23° C. for 1 hour. • c) Detection phase: • 1) Added 13.33 mL of ethylenediaminetetraacetic acid solution to the Detection Buffer in the kit, added the specified amount of […] (Eu)-labeled antibody and streptavidin XL-665, and prepared the detection solution. • 2) Loaded with a Multidrop automatic dispenser, and 10 uL of the detection solution per well, incubated at 23° C. for 1 hour. It terminated the reaction of the enzyme and substrate mixture. • 3) Reading after centrifugation on a multi-function microplate reader, • d) Data Analysis: Analyzed the data with XL-Fit, and calculated the IC50 value of the compound.

AKT phosphorylation = assay: In vitro test of the inhibition effect on AKT phosphorylation (ELISA, Ramos cells); format: cell-based; details: Homo sapiens, Ramos
Description: Experimental Example 2: In Vitro Test of the Inhibition Effect of the Example Compounds on AKT Phosphorylation
• 2.1 Experimental Purpose: Intracellular protein kinase AKT phosphorylation detected by experiment was measured by enzyme-linked immunosorbent assay (ELISA), and the inhibition of the compound on protein kinase AKT phosphorylation was evaluated by an index of the half-cell inhibition concentration (IC50) value of the compound. • 2.2 Experimental Materials: • Cell line: Ramos cell line • Cell culture medium (RPMI1640, Invitrogen #22400-105; 10% serum Gibco #10099-141; L-glutamine 1×, Gibco #25030-081) • Experimental medium (without serum, RPM11640, Invitrogen #22400-105; L-glutamine 1×, Gibco #25030) • Lysis buffer (trishydroxymethylaminomethane hydrochloride, Invitrogen15567-1000 ml; sodium chloride, domestic; sodium deoxycholate, Sigma30970-25 G; polyethylene glycol octylphenyl ether, SigmaT9284-100 ml; dodecane sodium sulfonate, SigmaL3771; ethylenediaminetetraacetic acid, Invitrogen15575-038-100 ml; ultrapure water, MilliQ) • Protease inhibitor (Roche, 4693159001-30/BOX) • Phosphatase inhibitor mixture 2 (Sigma, P5726-5 ML) • Phosphatase inhibitor mixture 3 (Sigma, P0044-5 ML) • Goat Anti-Human immunoglobulin M (F(ab′)2 Goat Anti-Human IgM) (Jackson Immuno Research-109-006-129) • Phosphorylated AKT assay kit (Phospho-AKT 1/2/3 (ser473)) (TGR Bioscience, EKT002) • 10× Hank's balanced salt solution (Gibco #14065-056) • 96-well cell plate (Greiner #655090) • Compound V-well dilution plate (Axygen #WITP02280) • CO2 incubator (Thermo #371) • Centrifuge (Eppendorf #581 OR) • Vi-cell cell counter (Beckman Coulter) • Pipette (Eppendorf) • Pipette (Greiner) • Pipetting gun (Eppendorf) • Multi-purpose microplate reader (Envision Reader) • 2.3 Experimental procedures and methods: • a) Cell Seeding (Ramos Cells) • 1) The medium was preheated in a 37° C. water bath. Suspended cells and their culture solution were aspirated, centrifuged at 1000 rpm for 5 minutes. • 2) Aspirated the cell culture medium, added 10 mL of pre-warmed medium to the centrifuge tube, blew off the resuspended cells, pipette 1 mL of the cell suspension, and counted with Vi-cell; • 3) The Ramos cells were diluted with a medium to a density of 5×10^6/mL, and the diluted cells were added to a 96-well cell culture plate (100 μL/well) using a lance. Placed the cell plates in a 37° C., 5% CO2 incubator for overnight. • b) Cell starvation: • 1) After cultured the inoculation cells for overnight, centrifuged at 1000 rpm for 5 minutes on the next day, aspirated the original medium by a lance, added serum-free experimental medium, placed the cell plates in a 37° C., 5% CO2 incubator, and starved for overnight. • c) Compound preparation and dosing: • 1) The compound was diluted with dimethyl sulfoxide to give an initial concentration of 5 mM. A triple gradient dilution was done with compound V dilution plate to make 10 concentration points. • 2) Took another new compound V-well dilution plate, added 198 ul of serum-free experimental medium to each well, and then added 2 ul of the diluted compound above to each well, and mixed with a lance. […]

[1] = Ramos cell line, compound 1 hour, goat anti-human IgM 10 ug/ml for 10 minutes, Phospho-AKT 1/2/3 (ser473) ELISA, read-out: Inhibit AKT phosphorylation IC50

Structure (SMILES)	IC50 (SYK kinase) [µM]	IC50 (AKT phosphorylation; [1]) [nM]	IC50 (AKT phosphorylation; read-out: Inhibit AKT phosphorylation IC50 (nM)) [nM]
Cn1c(=O)c(Nc2ccc(N3CCNCC3)cc2)nc2ccc(-c3cn[nH]c3)cc21 [Example 39, 1-Methyl-3-((4-(piperazin-1-yl)phenyl)amino)-7-(1H-pyrazol-4-yl)quinoxaline-2(1H)-one]	0.0036	60.1	
Cn1c(=O)c(Nc2ccc(N3CCOCC3)cc2)nc2c(Cl)cc(-c3cn[nH]c3)cc21 [Example 41, 5-Chloro-1-methyl-3-((4-morpholinephenyl)amino)-7-(1H-pyrazol-4-yl)quinoxaline-2(1H)-one]	0.0048	98.8	
Cn1c(=O)c(Nc2ccc(N3C4CCC3CNC4)cc2)nc2ccc(-c3cn[nH]c3)cc21 [Example 54, 3-[4-(3,8-Diazabicyclo[3.2.1]octane-8-yl)aniline]-1-methyl-7-(1H-pyrazol-4-yl)quinoxaline-2(1H)-one]	0.005	69	
Cn1c(=O)c(Nc2ccc(N3CCCC(C(=O)O)C3)cc2)nc2ccc(-c3cn[nH]c3)cc21 (stereo not drawn) [Example 55, 1-(4-((4-methyl-3-oxo-6-(1H-pyrazol-4-yl)-3,4-dihydroquinoxalin-2-yl)amino)phenyl)piperidine-3-carboxylic acid]	0.0041		116

More lines, main results first:

IC50 (SYK kinase) [µM]	IC50 (AKT phosphorylation; [1]) [nM]	Structure (SMILES)	IC50 (AKT phosphorylation; read-out: Inhibit AKT phosphorylation IC50 (nM)) [nM]
0.0044	97	Cn1c(=O)c(Nc2ccc(N3CCOCC3)cc2)nc2c(F)cc(-c3cn[nH]c3)cc21 [Example 44]	
0.0202	83.3	Cn1c(=O)c(Nc2ccc(N3CCOCC3)cc2)nc2cc(F)c(-c3cn[nH]c3)cc21 [Example 45, 6-Fluoro-1-methyl-3-((4-morpholinephenyl)amino)-7-(1H-pyrazol-4-yl)quinoxaline-2(1H)-one]	
0.0095	114	Cn1c(=O)c(Nc2ccc(N3CCOCC3)cc2)nc2ccc(-c3cn[nH]c3)c(F)c21 [Example 46, 8-Fluoro-1-methyl-3-((4-morpholinephenyl)amino)-7-(1H-pyrazol-4-yl)quinoxaline-2(1H)-one]	
0.0105	114	Cn1c(=O)c(Nc2ccc(N3CCOCC3)c(F)c2)nc2ccc(-c3cn[nH]c3)cc21 [Example 48, 3-((3-Fluoro-4-morpholinephenyl)amino)-1-methyl-7-(1H-pyrazol-4-yl)quinoxaline-2(1H)-one]	
0.046	248	Cn1c(=O)c(Nc2ccc(N3CCOCC3)cc2)nc2ccc(-c3csc(N)n3)cc21 [Example 59, 7-(2-Aminothiazol-4-yl)-1-methyl-3-((4-morpholinephenyl)amino)quinoxaline-2(1H)-one]	
